Values of other authors in patent publication US20140350097A1, “TREATMENT OF HYPOTENSION ASSOCIATED WITH HEMODIALYSIS” (priority 2013, published 2014).

Key:
[1] = tested on: normal animals and animals with hypotensive shock; settings: cited from earlier work
[2] = tested on: LPS-induced hypotension in animals; settings: intravenous injection; cited from earlier work

For CNC(=N)NCCC[C@H](N)C(=O)O [N-monomethyl-L-arginine, N^G-monomethyl-L-arginine], the “effect on blood pressure” value [1] is given as “can cause hypertension” and the “effect on LPS-induced hypotension” value [2] is given as “reverse LPS-induced hypotension”.
